We go through one compound from patent US7211566B2 (Universite De Sherbrooke, priority 2003, dated 2007).

Series [1] in a line: Ex vivo stability in rat tissue extracts from liver, lung and kidney (HPLC). It is filed as in vitro ADME. As to conditions: Wistar, after 24 hours, read-out: parent remaining. The method, then: Liver, lung and kidneys were collected from Wistar rats and resuspended in nine volume of PBS. The tissues were homogenized for 3×15 sec. on ice with a Polytron homogenizer and were centrifuged at 3000 rpm for 15 min. at 4° C. The supernatant was collected and kept at −80° C. until used.
Stability studies were initiated by adding the peptide […] to 50–100 μl of either plasma, serum or extract (10–100 μM final concentration) and incubated for 10 min to 24 hours at 37° C. The reaction was stopped by the addition of ice-cold acetonitrile (75% final concentration) containing 10 μM Lys-desArg^9BK (which serves as an internal control). The samples were vortexed and centrifuged at 13000 rpm for 20 min at 4° C. in a microfuge. The clear supernatant was transferred to a 1 ml tube and the samples were evaporated to dryness by lyophilisation. Finally, the samples were resuspended in 50 μl of HPLC-grade water.
Quantitative analysis of the extracted compound and standard controls was carried out using an Agilent reverse-phase HPLC (model 1100) coupled to a 4.6×150 mm Zorbax 300SB-C18 column (5 μm particle size) and equipped with a diode array detector. […] The elution positions and quantification of compounds were determined by following the absorbance at 226 nm. […]

Series [2] deals with STZ diabetic mice. The experiment in a line: Hot plate test, type-1 diabetic hyperalgesia. It is filed as in vivo. As to conditions: STZ diabetic mice, i.p., at time of maximal inhibition (20 min). The method, then:
(§1) Male CD-1 mice weighting between 25–30 g (Charles River Breeding Laboratory, St-Constant, QC, Canada) were used. The mice were housed four by cage with free access to food and water. They were maintained under conditions of standard lighting, (alternating 12-h light/dark cycle), temperature (22±0.5° C.) and humidity (60±10%) with food and water available at libitum. Animals were used only once in a given experiment. Experiments were conducted between 10:00 and 18:00 h.
(§2) Streptozotocin (Pharmacia & Upjohn Incorporation, Mississauga, ON, Canada) was dissolved in saline at a pH of 4.5 and administered to mice i.p. The BKB1 agonist desArg^9BK and compound c were dissolved in saline and administered to mice i.p.
(§3) Insulin-dependent diabetes mellitus (IDDM) was induced in mice using STZ. Male CD-1 mice were given a single high i.p. dose of STZ (200 mg/kg) (McEvoy et al., 1984, J Clin Invest 74, 715–722). […] Blood glucose levels were determined with an automatic analyzer (Glucometer Elite XL, Bayer Incorporation, Toronto, Ontario, Canada) using glucose oxidase/potassium ferricyanide reagent strips. […]
The hot plate test was adapted from the technique of Eddy and Leimbach (1953, J Pharmacol Exp Ther 107, 385–389). […] When the pain threshold is reached the animal starts to react by licking its hind paw or to jump, and the reaction time is recorded with a built-in timer, with a maximum cut-off time of 30 s to avoid tissue damage. […]
(§4) The effect of the selected drugs on nociception was determined by converting the hot plate, the plantar stimulation, the tail immersion or the tail flick responses from latencies into MPE (Maximum Percent Effect) according to the following equation (Bhargava and Zhao, 1996, Neuropeptides, 30, 219–223): […]
In all tests, pre-treatment latencies were determined three times with an interval of 24 h starting three days before the injection of STZ or saline and the mean was calculated in order to obtain stable pre-drug response latency. […]
Background: Thermal pain tests record how soon the animal reacts.

Series [3] relates to STZ diabetic mice. Briefly: Tail flick test, type-1 diabetic hyperalgesia. As to conditions: STZ diabetic mice, i.p., at time of maximal inhibition (10 min). It is filed as in vivo. The method, then: as §1, §2, §3
The tail flick test of D'Amour and Smith (D'Amour and Smith, 1941, J Pharmacol Exp Ther 72, 74–79) modified for mice was used. […] The radiant light is focussed on a blackened spot in the mid region of the animal's tail (2–3 cm from the tip of the tail) and the latency between the application of the stimulation light and the flicking of the animal's tail is recorded. When the animal flicks its tail, its exposes a photocell in the apparatus immediately below the tail and the instrument is automatically stopped and the time is recorded. […]
as §4

Square brackets hold non-standard residues; d marks the D form. Peptide text beside a SMILES is read from it. Oic = O=C(O)[C@@H]1C[C@@H]2CCCC[C@@H]2N1; d2Nal = N[C@H](Cc1ccc2ccccc2c1)C(=O)O; αMeF = C[C@](N)(Cc1ccccc1)C(=O)O; Orn = NCCC[C@H](N)C(=O)O

The amount remaining is the share of the starting amount still present when the sample was taken.

Consider `CC[C@H](C)[C@H](NC(=O)[C@@H](Cc1ccc2ccccc2c1)NC(=O)[C@H](CO)NC(=O)[C@](C)(Cc1ccccc1)NC(=O)CNC(=O)[C@@H]1CCCN1C(=O)[C@@H]1C[C@@H]2CCCC[C@@H]2N1C(=O)[C@H](CCCNC(=N)N)NC(=O)[C@H](CCCN)NC(C)=O)C(=O)O` [compound c, Ac-Orn[Oic^2,(α-Me)Phe^5,D-βNal^7,Ile^8]desArg^9BK] (Ac-[Orn]R[Oic]PG[αMeF]S[d2Nal]I-OH), for which, in series [1], the fraction remaining at 24 h is > 75%. The ID50 in series [2] worked out at 0.078 ± 0.003 mg/kg; in series [3], 0.072 ± 0.002 mg/kg.
